Data from publication PMC12226733, “Evolution of iGluR ligand specificity, polyamine regulation, and ion selectivity inferred from a placozoan epsilon receptor” (Communications Biology, 2025).
Values joined by “and” are separate entries in the source; they are usually repeats but may differ in a detail not shown here. Equal entries are not always repeated.

Columns and labels:
GluA2 D611A + γ2 = molecular target: T1, GluA2 D611A + γ2 (Homo sapiens, UniProt P42262, D611A); assay: outside-out patch clamp, block by intracellular spermine, HEK-293T/17 cells; format: biochemical; conditions: for Normalized conductance (Gnorm) AMPA D611A + γ2 / Normalized current (Inorm) AMPA D611A + γ2: single recordings and AVG
T1 construct: expressed in transfected cells; host or cells: HEK-293T/17
Description: (§1) Parallel experiments were carried out in human GluA2 homotetramers bearing equivalent Q/R/N and +4 site mutations to compare the regulation of voltage-dependent polyamine block within the broader context of mammalian receptors. Experimental design remained the same, except for using 10 mM glutamate as the agonist used to evoke membrane currents (Fig. 7a, d, g, and j). […] Their properties were accordingly compared to wildtype GluA2(Q) co-expressed with TARP-γ2.
(§2) HEK-293T/17 cells (ATCC) were maintained in MEM supplemented with GlutaMAX and 10% fetal bovine serum (FBS) at 37 °C and 5% CO2. […] Transient transfections were carried out 48 h post-plating using the calcium phosphate precipitation method. After 6–8 hours, cells were washed twice with PBS and maintained in fresh medium. Cells transfected with mammalian GluA2 cDNA (plasmid vector described above) were returned to an incubator at 37 °C for 24–48 hours and cells transfected with Epsilon GluE1αA were incubated at 28 °C for 48–72 hours. In cells co-transfected with TARP-γ2, 30 μM NBQX was included in the medium to minimize AMPAR/auxiliary-induced cytotoxicity. All constructs were co-transfected with a plasmid encoding enhanced green fluorescent protein (eGFP) to identify transfected cells. Electrophysiology responses were recorded from outside-out patches excised from transfected cells. Recording pipettes were composed of borosilicate glass (3 to 6 megaohm, King Precision Glass) coated with dental wax to reduce electrical noise. All recordings were performed using Axopatch 200B amplifier (Molecular Devices, LLC). Current records were filtered at 5 or 10 kHz and sampled at 25–50 kHz. Series resistance (3 to 12 megaohms) was compensated by 95%. Recordings were performed at a range of holding potentials from −100 mV to 100 mV to study polyamine block. Data was acquired using pClamp9 software (Molecular Devices, LLC). All experiments were performed at room temperature. All chemicals were purchased from Sigma-Aldrich, unless otherwise indicated. External solution contained (in mM): 150 NaCl, 5 HEPES, 0.1 CaCl2, 0.1 MgCl, and […], pH 7.3–7.4. […] The osmotic pressure of all solutions was adjusted to 295 to 300 mOsm with sucrose. […] Stocks were thawed on the day of the experiment and used to prepared agonist-containing external solutions. Raw data for all electrophysiology experiments are provided in Supplementary Data 3. Current-voltage (I-V) relationships were fit using Origin 7 (OriginLab) using a ninth order polynomial function to estimate the reversal potential (Vrev).
(§3) Agonist-evoked membrane conductance (G) was calculated using the following equation: G=I/(V−Vrev)
(§4) Conductance-voltage (G-V) relationships were fit using Origin 7 (OriginLab) with the single permeant blocker model as done previously[46]: G=Gmax/1+[Spm]/Kd Where Gmax is the maximal conductance, [Spm] is the internal Spm concentration, and Kd is the dissociation constant.
(§5) Kd is defined as: Kd=koff+kperm/kon=sumofexitrates/bindingrate
(§6) And redefined as: Kd=g*exp(V/h)+L*exp(V/k) Where h and k are voltage dependencies of g and L, respectively, and at 0 mV: g=koff/konandL=kperm/kon

GluA2(Q) wt + γ2 = molecular target: T2, GluA2(Q) wt + γ2 (Homo sapiens, UniProt P42262); assay: as above; format: biochemical; conditions: single recordings and AVG;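 as to Normalized conductance (Gnorm) GluA2 wild type + γ2: normalized to each receptor's own maximal conductance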
T2 construct: expressed in transfected cells; host or cells: HEK-293T/17
Description: as §1, §2, §3, §4, §5, §6

T1 sequence (P42262 25-883 D611A): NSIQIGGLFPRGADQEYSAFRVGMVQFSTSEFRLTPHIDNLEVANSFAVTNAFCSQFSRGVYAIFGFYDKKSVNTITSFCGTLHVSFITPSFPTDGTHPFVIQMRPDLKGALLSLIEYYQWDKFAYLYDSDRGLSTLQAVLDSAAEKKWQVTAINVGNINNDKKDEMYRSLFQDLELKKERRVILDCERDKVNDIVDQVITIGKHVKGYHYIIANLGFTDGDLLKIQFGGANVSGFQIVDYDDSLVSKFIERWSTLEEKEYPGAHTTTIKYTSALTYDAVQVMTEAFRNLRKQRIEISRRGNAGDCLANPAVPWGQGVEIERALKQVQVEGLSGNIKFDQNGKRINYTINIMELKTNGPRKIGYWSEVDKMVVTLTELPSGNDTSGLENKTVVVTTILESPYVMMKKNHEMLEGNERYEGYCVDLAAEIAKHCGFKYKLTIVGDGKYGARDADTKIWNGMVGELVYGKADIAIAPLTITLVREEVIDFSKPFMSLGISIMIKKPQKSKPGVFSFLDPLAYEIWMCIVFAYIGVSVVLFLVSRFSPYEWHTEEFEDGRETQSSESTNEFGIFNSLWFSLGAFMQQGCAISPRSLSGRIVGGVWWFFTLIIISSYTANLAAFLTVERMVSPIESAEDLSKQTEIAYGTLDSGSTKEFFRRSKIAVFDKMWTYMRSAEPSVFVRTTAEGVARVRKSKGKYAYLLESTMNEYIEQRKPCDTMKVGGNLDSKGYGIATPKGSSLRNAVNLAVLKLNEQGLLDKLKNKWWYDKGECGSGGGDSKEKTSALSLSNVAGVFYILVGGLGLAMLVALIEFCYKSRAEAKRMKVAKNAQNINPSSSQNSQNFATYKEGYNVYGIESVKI
T1 sequence (Q9Y698 whole entry partner): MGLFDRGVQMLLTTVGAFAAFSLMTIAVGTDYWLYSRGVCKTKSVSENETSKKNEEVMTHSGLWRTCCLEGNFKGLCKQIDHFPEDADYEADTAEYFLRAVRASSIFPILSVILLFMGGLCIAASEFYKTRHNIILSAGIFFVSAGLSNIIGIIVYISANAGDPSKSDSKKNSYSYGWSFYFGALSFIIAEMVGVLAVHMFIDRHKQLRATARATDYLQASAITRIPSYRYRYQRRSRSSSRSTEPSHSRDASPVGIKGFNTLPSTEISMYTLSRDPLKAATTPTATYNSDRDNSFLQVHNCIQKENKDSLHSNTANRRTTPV
T2 sequence (P42262 25-883): as the sequence (P42262 25-883 D611A) above, with A587D counted along it
T2 sequence (Q9Y698 whole entry partner): as the sequence (Q9Y698 whole entry partner) above

Question: Which results are given for `NCCCNCCCCNCCCN` [spermine]?
Answer: Normalized conductance (Gnorm) AMPA D611A + γ2 (GluA2 D611A + γ2; 0 mV): 0.81 and 0.75 and 0.86 and 0.99 and 0.85; Normalized conductance (Gnorm) AMPA D611A + γ2 (GluA2 D611A + γ2; 10 mV): 0.83 and 0.76 and 0.89 and 0.84; Normalized current (Inorm) AMPA D611A + γ2 (GluA2 D611A + γ2; 10 mV): 0.05 and 0.0569 and 0.06 and 0.0738; Normalized conductance (Gnorm) AMPA D611A + γ2 (GluA2 D611A + γ2; 20 mV): 0.86 and 0.79 and 0.92 and 0.87; Normalized current (Inorm) AMPA D611A + γ2 (GluA2 D611A + γ2; 20 mV): 0.15 and 0.14 and 0.17; Normalized conductance (Gnorm) AMPA D611A + γ2 (GluA2 D611A + γ2; 30 mV): 0.92 and 0.81 and 0.94 and 0.90; Normalized current (Inorm) AMPA D611A + γ2 (GluA2 D611A + γ2; 30 mV): 0.26 and 0.22 and 0.25 and 0.27; Normalized conductance (Gnorm) AMPA D611A + γ2 (GluA2 D611A + γ2; 40 mV): 0.93 and 0.87 and 0.95 and 0.91; Normalized current (Inorm) AMPA D611A + γ2 (GluA2 D611A + γ2; 40 mV): 0.36 and 0.33 and 0.32 and 0.37 and 0.35; Normalized conductance (Gnorm) AMPA D611A + γ2 (GluA2 D611A + γ2; 50 mV): 0.97 and 0.91 and 0.99 and 0.92 and 0.95; Normalized current (Inorm) AMPA D611A + γ2 (GluA2 D611A + γ2; 50 mV): 0.49 and 0.44 and 0.47 and 0.45 and 0.46; Normalized conductance (Gnorm) AMPA D611A + γ2 (GluA2 D611A + γ2; 60 mV): 0.94 and 0.96 and 0.99; Normalized current (Inorm) AMPA D611A + γ2 (GluA2 D611A + γ2; 60 mV): 0.57 and 0.55 and 0.56; Normalized conductance (Gnorm) AMPA D611A + γ2 (GluA2 D611A + γ2; 70 mV): 0.98 and 1.00 and 0.92 and 0.99 and 0.97; Normalized current (Inorm) AMPA D611A + γ2 (GluA2 D611A + γ2; 70 mV): 0.71 and 0.68 and 0.62 and 0.67; Normalized conductance (Gnorm) AMPA D611A + γ2 (GluA2 D611A + γ2; 80 mV): 0.99 and 0.97 and 1.04 and 1.00; Normalized current (Inorm) AMPA D611A + γ2 (GluA2 D611A + γ2; 80 mV): 0.82 and 0.76 and 0.81 and 0.78 and 0.79; Normalized conductance (Gnorm) AMPA D611A + γ2 (GluA2 D611A + γ2; 90 mV): 1.00 and 0.88 and 0.98 and 0.95; Normalized current (Inorm) AMPA D611A + γ2 (GluA2 D611A + γ2; 90 mV): 0.94 and 0.78 and 0.87 and 0.86; Normalized conductance (Gnorm) AMPA D611A + γ2 (GluA2 D611A + γ2; 100 mV): 0.97 and 0.96 and 1.00 and 0.98; Normalized current (Inorm) AMPA D611A + γ2 (GluA2 D611A + γ2; 100 mV): 1.02 and 0.95 and 0.99; Normalized conductance (Gnorm) AMPA D611A + γ2 (GluA2 D611A + γ2; -10 mV): 0.83 and 0.80 and 0.82 and 0.89; Normalized conductance (Gnorm) AMPA D611A + γ2 (GluA2 D611A + γ2; -20 mV): 0.81 and 0.87 and 0.82 and 0.91 and 0.85; Normalized conductance (Gnorm) AMPA D611A + γ2 (GluA2 D611A + γ2; -30 mV): 0.82 and 0.87 and 0.93 and 0.91 and 0.88; Normalized conductance (Gnorm) AMPA D611A + γ2 (GluA2 D611A + γ2; -40 mV): 0.83 and 0.87 and 0.84 and 0.92; Normalized conductance (Gnorm) AMPA D611A + γ2 (GluA2 D611A + γ2; -50 mV): 0.86 and 0.81 and 1.01 and 0.95 and 0.91; Normalized conductance (Gnorm) AMPA D611A + γ2 (GluA2 D611A + γ2; -60 mV): 0.89 and 0.96 and 0.95 and 0.94; Normalized conductance (Gnorm) AMPA D611A + γ2 (GluA2 D611A + γ2; -70 mV): 0.89 and 0.92 and 0.95 and 0.91; Normalized conductance (Gnorm) AMPA D611A + γ2 (GluA2 D611A + γ2; -80 mV): 0.89 and 0.86 and 0.96 and 0.90; Normalized conductance (Gnorm) AMPA D611A + γ2 (GluA2 D611A + γ2; -90 mV): 0.86 and 0.94 and 0.98 and 0.93; Normalized conductance (Gnorm) AMPA D611A + γ2 (GluA2 D611A + γ2; -100 mV): 0.96 and 0.95 and 0.98; Normalized current (Inorm) AMPA D611A + γ2 (GluA2 D611A + γ2; -100 mV): -1.00; h, voltage dependency of block onset (GluA2 D611A + γ2; GluA2 D611A + γ2): −58.8 ± 8.8 mV; k, voltage dependency of block relief (GluA2 D611A + γ2; GluA2 D611A + γ2): 20.8 ± 3.7 mV; Kd (GluA2 D611A + γ2; GluA2 D611A + γ2, 30 µM internal Spm, 10 mM glutamate, read-out: Kd(0mV)): 169 ± 54.6 µM; Normalized conductance (Gnorm) GluA2 wild type + γ2 (GluA2(Q) wt + γ2; 0 mV): 0.51 and 0.59 and 0.49 and 0.67 and 0.55 and 0.56; Normalized conductance (Gnorm) GluA2 wild type + γ2 (GluA2(Q) wt + γ2; 10 mV): 0.45 and 0.34 and 0.59 and 0.41; Normalized current (Inorm) GluA2 wild type + γ2 (GluA2(Q) wt + γ2; 10 mV): 0.0271 and 0.03 and 0.0219 and 0.0374 and 0.0215 and 0.0279; Normalized conductance (Gnorm) GluA2 wild type + γ2 (GluA2(Q) wt + γ2; 20 mV): 0.46 and 0.44 and 0.31 and 0.56 and 0.39 and 0.43; Normalized current (Inorm) GluA2 wild type + γ2 (GluA2(Q) wt + γ2; 20 mV): 0.06 and 0.0741 and 0.05 and 0.09 and 0.07; Normalized conductance (Gnorm) GluA2 wild type + γ2 (GluA2(Q) wt + γ2; 30 mV): 0.53 and 0.56 and 0.39 and 0.59 and 0.50 and 0.51; Normalized current (Inorm) GluA2 wild type + γ2 (GluA2(Q) wt + γ2; 30 mV): 0.12 and 0.15 and 0.10 and 0.13; Normalized conductance (Gnorm) GluA2 wild type + γ2 (GluA2(Q) wt + γ2; 40 mV): 0.62 and 0.71 and 0.51 and 0.66 and 0.63; Normalized current (Inorm) GluA2 wild type + γ2 (GluA2(Q) wt + γ2; 40 mV): 0.20 and 0.26 and 0.18 and 0.23 and 0.22; Normalized conductance (Gnorm) GluA2 wild type + γ2 (GluA2(Q) wt + γ2; 50 mV): 0.72 and 0.83 and 0.63 and 0.75 and 0.82; Normalized current (Inorm) GluA2 wild type + γ2 (GluA2(Q) wt + γ2; 50 mV): 0.30 and 0.38 and 0.28 and 0.34 and 0.37 and 0.33; Normalized conductance (Gnorm) GluA2 wild type + γ2 (GluA2(Q) wt + γ2; 60 mV): 0.78 and 0.91 and 0.73 and 0.84 and 0.90 and 0.83
